Assays:
histamine H2-receptors [1] = molecular target: T1, histamine H2-receptors (Cavia porcellus, UniProt P47747); experiment: standard guinea pig atrium test (inhibition of histamine-induced tachycardia in the isolated guinea pig right atrium); type: cell-based; settings: for Kb: isolated guinea pig right atrium, read-out: pA2 (guinea-pig atrium) (converted); for slope of response (figure in brackets with pA2, guinea-pig atrium): slope belonging to pA2, guinea-pig atrium
T1 construct: from tissue; host or cells: isolated guinea pig right atrium
T1 sequence (P47747 whole entry): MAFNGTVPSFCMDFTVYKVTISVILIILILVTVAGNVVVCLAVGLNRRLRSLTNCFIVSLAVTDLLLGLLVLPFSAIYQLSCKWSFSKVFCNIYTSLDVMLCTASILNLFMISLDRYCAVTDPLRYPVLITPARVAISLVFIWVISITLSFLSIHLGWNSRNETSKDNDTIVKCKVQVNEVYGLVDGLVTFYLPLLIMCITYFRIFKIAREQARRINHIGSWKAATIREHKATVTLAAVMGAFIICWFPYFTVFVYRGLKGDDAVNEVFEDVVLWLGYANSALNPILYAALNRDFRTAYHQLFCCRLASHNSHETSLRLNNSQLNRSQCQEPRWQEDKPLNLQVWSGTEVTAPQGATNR
Source text: (§1) The measurement of inhibition of histamine-stimulated secretion of gastric acid from the lumen-perfused stomachs of rats anaesthetised with urethane, and the measurement of inhibition of histamine-induced tachycardia in the isolated guinea pig right atrium, are detailed in U.S. Pat. No. 4,385,058.
(§2) To illustrate the level of activity of these compounds the following data were obtained in the standard guinea pig atrium test and the standard lumen-perfused rat test (for example see EP No. -A-49173).

histamine H2-receptors [2] = molecular target: T2, histamine H2-receptors (Rattus norvegicus, UniProt P25102); experiment: standard lumen-perfused rat test (inhibition of histamine-stimulated secretion of gastric acid from the lumen-perfused stomachs of rats anaesthetised with urethane); type: in vivo
T2 construct: secretion of gastric acid from the lumen-perfused stomachs of rats anaesthetised with urethane; from tissue; host or cells: stomach of urethane-anaesthetised rats (in vivo, lumen-perfused)
T2 sequence (P25102 whole entry, the tested form may be a part): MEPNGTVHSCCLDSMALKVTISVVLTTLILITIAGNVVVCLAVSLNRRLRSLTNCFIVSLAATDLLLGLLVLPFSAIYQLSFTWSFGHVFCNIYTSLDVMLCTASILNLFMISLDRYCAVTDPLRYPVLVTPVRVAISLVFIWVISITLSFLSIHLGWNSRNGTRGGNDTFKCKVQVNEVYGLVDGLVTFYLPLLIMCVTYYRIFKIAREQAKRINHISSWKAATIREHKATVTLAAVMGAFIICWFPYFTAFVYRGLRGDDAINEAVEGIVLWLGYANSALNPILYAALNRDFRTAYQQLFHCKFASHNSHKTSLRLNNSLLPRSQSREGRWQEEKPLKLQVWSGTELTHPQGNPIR
Source text: These are actions of histamine which, according to Ash and Schild, Brit. J. Pharmac. Chemother. 27 247 (1966), are not mediated by histamine H1 -receptors.
as §1, §2

Compound	Kb (histamine H2-receptors [1]) [nM]	slope of response (figure in brackets with pA2, guinea-pig atrium) (histamine H2-receptors [1])	ED50 (histamine H2-receptors [2]) [mg/kg]
Nc1n[s+]([O-])nc1NCCCCC#CCN1CCCCC1 (stereo not drawn) [Example 1, 3-Amino-4-[7-piperidinohept-5-ynylamino]-1,2,5-thiadiazole-1-oxide]	3020	0.95	1.1
CN(C)CC#CCCCCNc1n[s+]([O-])nc1N (stereo not drawn) [Example 2, 3-Amino-4-[7-dimethylaminohept-5-ynylamino]-1,2,5--thiadiazole-1-oxide]	646	0.61	0.16
CN(C)CC#CCCCCNC1=NS(=O)(=O)N=C1N [Example 3, 3-Amino-4-[7-dimethylaminohept-5-ynylamino]-1,2,5-thiadiazole-1,1-dioxide]	151	0.50	0.1
CN(C)CC#CCCCNC1=NS(=O)(=O)N=C1N [Example 4, 3-Amino-4-[6-dimethylaminohex-4-ynylamino]-1,2,5-thiadiazole-1,1-dioxide]	100	0.88	0.027
